Results on 51 molecules are retold here after the Deep4Chem optical property database.

The data set in a line: photoluminescence quantum yield (fraction); solvent given as SMILES.

SMILES strings stand for the structures.

Where the note is “in C1CCOC1”, `F[Si-](F)(c1ccccc1)(c1ccccc1)c1c2ccccc2cc2ccccc12` gave a photoluminescence quantum yield of 0.76.

With `COc1ccc2cc(/C=C/c3nc(/C=C/c4ccc(N(C)C)cc4)cc(/C=C/c4ccc(N(C)C)cc4)n3)ccc2c1`, the photoluminescence quantum yield (in ClCCl) came to 0.52.

In the case of `N#Cc1c(-n2cc(-c3ccccc3)nn2)n([C@H]2C[C@H](O)[C@@H](CO)O2)c2ncnc(N)c12`, where the note is “in CO”, the photoluminescence quantum yield worked out at 0.004.

Turning to `Cc1ccc2nc3[nH]c(=O)[nH]c(=O)c3nc2c1`, the photoluminescence quantum yield was 0.025 (in CC#N) and 0.034 (in ClCCCl).

For the molecule `CCC1=C(C2=C(C3=C(CC)S(=O)(=O)c4ccccc43)C(F)(F)C(F)(F)C2(F)F)c2ccccc2S1(=O)=O`, the photoluminescence quantum yield (in C1COCCO1) came out at 0.

In turn, `COC(=O)c1cccc2c1C#Cc1c(N)cccc1OCCCO2` yielded a photoluminescence quantum yield (in CC#N) of 0.03 and a photoluminescence quantum yield (in ClCCl) of 0.14.

`Cc1ccc(N(c2ccc(C)cc2)c2ccc(-c3ccc(C=C(C#N)C#N)o3)cc2)cc1` returned a photoluminescence quantum yield (in ClC(Cl)Cl) of 0.1.

Molecule `CC(C)[Si](C#Cc1ccc(C#C[Si](C(C)C)(C(C)C)C(C)C)c2nc3c4ccccc4c(=O)c4ccccc4c3nc12)(C(C)C)C(C)C` displayed a photoluminescence quantum yield (in ClCCl) of 0.08.

As to `CCCCN(CCCC)c1ccc(/C=C/c2ccc3nc(-c4ccccc4)c(/C=C/c4ccc(N(C)C)cc4)nc3c2)cc1`, the photoluminescence quantum yield (in C1COCCO1) worked out at 0.17.

Regarding `CN(C)c1ccc(C2=C3C=C(c4ccc(C=C(C#N)C#N)cc4)S[C@]34c3ccccc3[C@H]2c2ccccc24)cc1`, for the setting “in ClCCl”, the photoluminescence quantum yield is 0.01.

`CCC1(CC)c2ccccc2-c2c1c1c(c3c2C(CC)(CC)c2cc(N(c4ccccc4)c4ccccc4)ccc2-3)C(CC)(CC)c2ccccc2-1` came in with a photoluminescence quantum yield (in C1CCOC1) of 0.49.

Where the note is “in Cc1ccccc1”, `N#Cc1ccc2c(c1)C1(c3cc(C#N)ccc3-2)c2ccccc2N(c2ccccc2)c2ccccc21` showed a photoluminescence quantum yield of 0.47.

Regarding `Cc1cccc(C2=Cc3c4ccccc4cc[n+]3[B-](F)(F)O2)c1`, the photoluminescence quantum yield (in ClC(Cl)Cl) was determined as 0.06.

The molecule `c1ccc(-c2cc(-c3ccc(N4c5ccccc5C5(c6ccccc64)c4ccccc4N(c4ccc(-c6cc(-c7ccccc7)nc(-c7ccccc7)n6)cc4)c4ccccc45)cc3)nc(-c3ccccc3)n2)cc1` yielded a photoluminescence quantum yield (in O=P(c1ccccc1)(c1ccccc1)c1ccccc1Oc1ccccc1P(=O)(c1ccccc1)c1ccccc1) of 0.73.

Regarding `N#Cc1cccc(N)c1`, the photoluminescence quantum yield runs as follows: (in C1CCCCC1) 0.062; (in CC#N) 0.32; (in CCCCCC) 0.16; (in CCO) 0.19; (in O) 0.0019; (in OCC(F)(F)F) 0.0054.

Regarding `Nc1ccc2c(-c3ccccc3C(=O)[O-])c3ccc(=[NH2+])cc-3oc2c1`, the photoluminescence quantum yield (in CC#N) came out at 0.95, the photoluminescence quantum yield (in CCO) was 0.88, the photoluminescence quantum yield (in CN(C)C=O) turned out to be 0.84 and the photoluminescence quantum yield (in O) turned out to be 0.85.

Where the note is “in Cc1ccccc1”, `COC(=O)/C(C#N)=c1\s/c(=c2/s/c(=C(/C#N)C(=O)OC)c3cc(-c4ccc(C(F)(F)F)cc4)sc23)c2sc(-c3ccc(C(F)(F)F)cc3)cc12` gave a photoluminescence quantum yield of 0.212.

In turn, `CCCCCc1ccc(C#Cc2cc(C#Cc3ccc(CCCCC)cc3)c3ccc4c(C(=O)c5ccccc5)cc(C#Cc5ccc(CCCCC)cc5)c5ccc2c3c54)cc1` had a photoluminescence quantum yield (in ClCCl) of 0.43.

As for `O=C1c2ccc(-c3ccc(N(c4ccccc4)c4ccccc4)cc3)cc2C(=O)c2ccc(-c3ccc(N(c4ccccc4)c4ccccc4)cc3)cc21`, the photoluminescence quantum yield was determined as 0.59 (in Cc1ccccc1) and 0.8 (in c1ccc2c(c1)c1ccccc1n2-c1ccc(-c2ccc(-n3c4ccccc4c4ccccc43)cc2)cc1).

As to `CC1[C@@H]2[C@@H]1[C@]1(c3ccccc3)N=NC2(c2ccccc2)C2C3C=CC(C3)C21` (stereo partly specified), the photoluminescence quantum yield (in CC#N) was 0.018.

On to `F[B-]1(F)OC(c2ccccc2)=Nc2sc(-c3ccccc3)n[n+]21`, for which the photoluminescence quantum yield reads like this: (in C1CCOC1) 0.02; (in CCO) 0.01; (in CCOC(C)=O) 0.01; (in CN(C)C=O) 0.01; (in Cc1ccccc1) 0.06; (in ClC(Cl)Cl) 0.05. The same molecule came in with a photoluminescence quantum yield (in ClCCl) of 0.03.

As to `CC(C)(C)NC1=C2C=CC=[N+]2[B-](F)(F)n2cccc21`, the photoluminescence quantum yield by setting is: (in C1CCCCC1) 0.63; (in CC(C)=O) 0.002; (in CCO) 0.002; (in CCOC(C)=O) 0.012; (in CO) 0.001; (in OCC(F)(F)F) 0.006.

In turn, `CCCCCCn1c2cc(/C=C/c3cccs3)ccc2c2ccc(/C=C/c3cccs3)cc21` had a photoluminescence quantum yield (in ClC(Cl)Cl) of 0.89.

Take `c1ccc2cc(-n3c4ccccc4c4ccccc43)ccc2c1`: the photoluminescence quantum yield runs as follows: (in C1CCCCC1) 0.48; (in CCOC(C)=O) 0.46; (in CO) 0.32.

The molecule `C[N+]1=C(/C=C/C=C2/N(CCCc3ccccc3)c3ccccc3C2(C)C)C(C)(C)c2ccccc21` displayed a photoluminescence quantum yield (in CS(C)=O) of 0.08.

Turning to `COc1ccc(/N=N/c2c(O)c3ccccc3n(C)c2=O)c(S(=O)(=O)O)c1`, the photoluminescence quantum yield (in CS(C)=O) turned out to be 0.03.

Turning to `CC(C)(C)c1ccc2c(c1)c1cc(C(C)(C)C)ccc1n2-c1cc(C(=O)c2cccnc2)cc(-n2c3ccc(C(C)(C)C)cc3c3cc(C(C)(C)C)ccc32)c1`, the photoluminescence quantum yield is 0.07 (in Cc1ccccc1) and 0.92 (in c1cc(-c2cccc(-n3c4ccccc4c4ccccc43)c2)cc(-n2c3ccccc3c3ccccc32)c1).

The molecule `c1ccc2c(-c3c4ccccc4c(-c4ccc(-c5ccc(-n6c7ccccc7c7ccccc76)cc5)cc4)c4ccccc34)cccc2c1` displayed a photoluminescence quantum yield (in ClCCl) of 0.7.

On to `COc1cc(C=C(C#Cc2ccccc2)C#Cc2ccccc2)c(OC)cc1C=C(C#Cc1ccccc1)C#Cc1ccccc1`, for which the photoluminescence quantum yield (in ClC(Cl)Cl) turned out to be 0.34.

`CC/[NH+]=c1\cc2oc3cc(NCCO)c4ccccc4c3nc-2cc1C`: the photoluminescence quantum yield stood at 0.49 (in CCO) and 0.36 (in O).

As for `Cc1ccc(-n2c(-c3ccc(N(c4ccc(-c5ccc(N(c6ccc(-c7nc8c9ccccc9c9ccccc9c8n7-c7ccc(C)cc7)cc6)c6ccc(-c7nc8c9ccccc9c9ccccc9c8n7-c7ccc(C)cc7)cc6)cc5)cc4)c4ccc(-c5nc6c7ccccc7c7ccccc7c6n5-c5ccc(C)cc5)cc4)cc3)nc3c4ccccc4c4ccccc4c32)cc1`, the photoluminescence quantum yield (in ClCCl) came to 0.282.

For the molecule `Cn1nc(-c2ccccc2)cc1-c1ccccc1`, for the setting “in ClCCl”, the photoluminescence quantum yield amounted to 0.42.

`CCN(CC)c1c2ccc(=[N+]3CCCCC3)cc-2oc2cc(N3CCCCC3)ccc12` gave a photoluminescence quantum yield (in ClCCl) of 0.11.

Under “in ClC(Cl)Cl”, `CC(C)(C)c1cccc2c1oc1nc3oc4ccc(-n5c6ccccc6c6ccccc65)cc4c3cc12` gave a photoluminescence quantum yield of 0.072.

For `N#Cc1cc(/C=C/c2ccc(N(c3ccccc3)c3ccccc3)cc2)ccc1/C=C/c1ccc(/C=C/c2ccc(N(c3ccccc3)c3ccccc3)cc2)cc1C#N`, under “in ClCCl”, the photoluminescence quantum yield amounted to 0.41.

`O=c1cc2cc(O)c3c(O)ccc4ccc(o1)c2c43` yielded a photoluminescence quantum yield (in CC1CCCO1) of 0.52.

The molecule `CC(=O)c1ccc(-c2cc(C)[o+]c(C)c2)cc1` displayed a photoluminescence quantum yield (in ClCCl) of 0.03.

For `CCN1c2ccc(-c3cc(C(F)(F)F)[nH]n3)cc2Sc2cc(-c3cc(C(F)(F)F)[nH]n3)ccc21`, the photoluminescence quantum yield runs as follows: (in C1CCOC1) 0.46; (in CC#N) 0.46; (in CN(C)C=O) 0.75; (in ClCCl) 0.56; (in c1ccccc1) 0.49.

`COc1cc(C#Cc2ccccc2)c(C#Cc2ccccc2)cc1OC` displayed a photoluminescence quantum yield (in CC#N) of 0.81.

`CC(C)(C)c1ccc(N(c2ccc(C(C)(C)C)cc2)c2ccc(S(=O)(=O)c3ccc(N(c4ccc(C(C)(C)C)cc4)c4ccc(C(C)(C)C)cc4)cc3)cc2)cc1`: the photoluminescence quantum yield (in Cc1ccccc1) amounted to 0.65.

The molecule `Cc1c2c(c(C)c3ccccc13)C1=CC3Nc4ccccc4NC3C=C12` (stereo unspecified) returned a photoluminescence quantum yield (in ClC(Cl)Cl) of 0.02.

For the setting “in CCOC(C)=O”, `C[Si](C)(C)c1cc2c(cc3ccc4cccc5ccc2c3c45)[nH]1` came in with a photoluminescence quantum yield of 0.95.

Regarding `COC(=O)[C@@]12N=N[C@@](C(=O)OC)(C3[C@H]1C3(C)C)[C@H]1[C@@H]2C1(C)C` (stereo partly specified), the photoluminescence quantum yield (in CC#N) worked out at 0.041.

Regarding `COc1ccc2c(c1)cc(C)c1c3ccccc3[nH]c21`, the photoluminescence quantum yield (in ClCCl) turned out to be 0.109.

Consider `CCCCCCN(CCCCCC)c1ccc(C#Cc2ccc(C(F)(F)F)cc2)cc1`, for which the photoluminescence quantum yield was found to be 0.0074 (in CO) and 0.24 (in ClCCl).

Regarding `Cn1c(=O)cc(C(=O)c2ccccc2)c2sc(-c3ccc(N(c4ccccc4)c4ccccc4)cc3)cc21`, for the setting “in ClCCl”, the photoluminescence quantum yield came out at 0.05.

Molecule `O=C(c1ccc(N(c2ccccc2)c2ccccc2)cc1)[C@H]1[C@H](c2ccccc2)C[C@](O)(c2ccccn2)C[C@]1(O)c1ccccn1` came in with a photoluminescence quantum yield (in C1CCOC1) of 0.48; a photoluminescence quantum yield (in CC#N) of 0.02; a photoluminescence quantum yield (in CCO) of 0.01; a photoluminescence quantum yield (in CCOC(C)=O) of 0.4; a photoluminescence quantum yield (in CN(C)C=O) of 0.03; a photoluminescence quantum yield (in ClCCl) of 0.25. This molecule also came in with a photoluminescence quantum yield (in c1ccccc1) of 0.93.

Take `Cc1cc(=O)oc2cc3c(cc12)c1c2ccccc2c2ccccc2c1c1c2ccccc2c2ccccc2c31`: the photoluminescence quantum yield (in ClC(Cl)Cl) is 0.1.

As for `CCC12C(=C3C(=C4c5ccc(-c6ccc(C)s6)cc5S(=O)(=O)C41CC)C(F)(F)C(F)(F)C3(F)F)c1ccc(-c3ccc(C)s3)cc1S2(=O)=O` (stereo unspecified), the photoluminescence quantum yield was determined as 0.78 (in C1COCCO1), 0.67 (in CC#N), 0.72 (in CCCCCC) and 0.62 (in CCO).

`C1=Cc2ccc(N(c3ccccc3)c3ccccc3)cc2C2(c3cc(N(c4ccccc4)c4ccccc4)ccc31)c1ccccc1-c1ccccc12` registered a photoluminescence quantum yield (in ClCCl) of 0.9.

`N#Cc1c(/C=C/c2ccc(N(c3ccccc3)c3ccccc3)cc2)cc(-c2ccccc2)cc1N1CCCCC1` yielded a photoluminescence quantum yield (in CS(C)=O) of 0.6.
